ChEMBL document CHEMBL5442175, “EUbOPEN Chemogenomics Library - PDSP Secondary Binding” (2024)
Where a name gives a salt, the structure may show the parent alone.

How the values were obtained:
[1] = biological target: Sigma non-opioid intracellular receptor 1 (Homo sapiens, UniProt Q99720); assay: (§1) PDSP Secondary Binding target: SIGMAR1 - Compounds are tested at 10 uM concentration, plate are incubated at room temperature in the dark for 90 minutes. Reaction are stopped by vacuum filtration onto 0.3% polyethyleneimine soaked filter mats using Filtermate harvester. Scintillation cocktail is then melted onto microwave-dried filters on a hot plate and the radio activity is counted in Microbia counter.
Chain of Sigma non-opioid intracellular receptor 1 (Q99720 whole entry): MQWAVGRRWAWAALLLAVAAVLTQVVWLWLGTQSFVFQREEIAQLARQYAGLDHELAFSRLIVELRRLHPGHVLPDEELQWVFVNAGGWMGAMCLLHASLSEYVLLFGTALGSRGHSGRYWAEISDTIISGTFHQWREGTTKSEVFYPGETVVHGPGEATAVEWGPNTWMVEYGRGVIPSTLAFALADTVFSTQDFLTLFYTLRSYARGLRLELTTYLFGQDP

[2] = biological target: Sigma intracellular receptor 2 (Homo sapiens, UniProt Q5BJF2); assay: as §1, with “TMEM97” for “SIGMAR1”
Chain of Sigma intracellular receptor 2 (Q5BJF2 whole entry): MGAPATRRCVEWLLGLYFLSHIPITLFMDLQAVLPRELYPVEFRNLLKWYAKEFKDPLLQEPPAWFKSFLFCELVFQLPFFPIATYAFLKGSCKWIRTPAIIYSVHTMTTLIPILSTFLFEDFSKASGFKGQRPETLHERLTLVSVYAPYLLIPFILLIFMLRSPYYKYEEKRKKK

D(2) dopamine receptor = D(2) dopamine receptor (Homo sapiens, UniProt P14416); assay: as §1, with “DRD2” for “SIGMAR1”
Chain of D(2) dopamine receptor (P14416 whole entry): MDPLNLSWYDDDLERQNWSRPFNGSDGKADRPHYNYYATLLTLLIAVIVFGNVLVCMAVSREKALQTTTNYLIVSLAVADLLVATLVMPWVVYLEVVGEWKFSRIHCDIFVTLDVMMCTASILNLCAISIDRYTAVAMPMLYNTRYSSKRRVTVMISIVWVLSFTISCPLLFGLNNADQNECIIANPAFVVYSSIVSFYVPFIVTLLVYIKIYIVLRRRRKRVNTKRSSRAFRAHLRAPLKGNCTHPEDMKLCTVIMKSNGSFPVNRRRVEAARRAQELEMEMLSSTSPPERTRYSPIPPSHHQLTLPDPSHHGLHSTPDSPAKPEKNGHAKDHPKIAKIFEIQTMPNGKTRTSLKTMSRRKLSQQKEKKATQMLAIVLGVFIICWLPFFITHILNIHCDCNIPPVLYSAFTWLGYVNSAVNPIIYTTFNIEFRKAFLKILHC

[3] = biological target: 5-hydroxytryptamine receptor 2A (Homo sapiens, UniProt P28223); assay: as §1, with “HTR2A” for “SIGMAR1”
Chain of 5-hydroxytryptamine receptor 2A (P28223 whole entry): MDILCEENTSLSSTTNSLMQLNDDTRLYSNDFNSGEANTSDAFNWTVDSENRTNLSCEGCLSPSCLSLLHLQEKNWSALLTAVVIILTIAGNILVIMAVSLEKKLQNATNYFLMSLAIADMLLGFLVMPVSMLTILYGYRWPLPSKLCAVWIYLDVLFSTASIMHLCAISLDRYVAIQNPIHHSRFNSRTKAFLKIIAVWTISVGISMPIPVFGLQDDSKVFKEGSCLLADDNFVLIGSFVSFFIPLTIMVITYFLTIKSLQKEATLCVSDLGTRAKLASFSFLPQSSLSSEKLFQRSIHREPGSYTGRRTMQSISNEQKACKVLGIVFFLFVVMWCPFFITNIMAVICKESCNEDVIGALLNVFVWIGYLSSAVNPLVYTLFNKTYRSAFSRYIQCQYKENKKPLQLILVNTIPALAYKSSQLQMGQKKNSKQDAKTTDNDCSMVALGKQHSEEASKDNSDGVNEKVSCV

[4] = biological target: Sodium-dependent serotonin transporter (Homo sapiens, UniProt P31645); assay: as §1, with “SLC6A4” for “SIGMAR1”
Chain of Sodium-dependent serotonin transporter (P31645 whole entry): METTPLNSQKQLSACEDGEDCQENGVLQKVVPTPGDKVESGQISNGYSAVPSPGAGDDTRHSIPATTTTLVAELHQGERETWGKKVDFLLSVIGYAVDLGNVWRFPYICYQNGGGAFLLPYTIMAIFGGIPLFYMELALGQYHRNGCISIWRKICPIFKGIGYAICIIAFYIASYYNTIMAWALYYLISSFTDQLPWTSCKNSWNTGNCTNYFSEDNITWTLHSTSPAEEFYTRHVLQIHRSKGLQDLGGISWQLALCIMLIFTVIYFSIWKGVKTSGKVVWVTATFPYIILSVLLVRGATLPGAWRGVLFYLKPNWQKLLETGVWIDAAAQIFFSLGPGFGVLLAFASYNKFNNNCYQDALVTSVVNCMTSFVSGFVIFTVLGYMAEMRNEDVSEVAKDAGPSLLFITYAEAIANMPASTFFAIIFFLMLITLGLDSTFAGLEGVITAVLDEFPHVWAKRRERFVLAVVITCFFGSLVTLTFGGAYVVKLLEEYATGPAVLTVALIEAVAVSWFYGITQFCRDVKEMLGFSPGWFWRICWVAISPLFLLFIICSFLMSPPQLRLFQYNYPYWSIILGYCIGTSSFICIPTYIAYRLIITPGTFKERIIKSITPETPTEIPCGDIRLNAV

[5] = biological target: T1, 5-hydroxytryptamine receptor 2C (Homo sapiens, UniProt P28335); assay: as §1, with “HTR2C” for “SIGMAR1”
T1 sequence (P28335 whole entry): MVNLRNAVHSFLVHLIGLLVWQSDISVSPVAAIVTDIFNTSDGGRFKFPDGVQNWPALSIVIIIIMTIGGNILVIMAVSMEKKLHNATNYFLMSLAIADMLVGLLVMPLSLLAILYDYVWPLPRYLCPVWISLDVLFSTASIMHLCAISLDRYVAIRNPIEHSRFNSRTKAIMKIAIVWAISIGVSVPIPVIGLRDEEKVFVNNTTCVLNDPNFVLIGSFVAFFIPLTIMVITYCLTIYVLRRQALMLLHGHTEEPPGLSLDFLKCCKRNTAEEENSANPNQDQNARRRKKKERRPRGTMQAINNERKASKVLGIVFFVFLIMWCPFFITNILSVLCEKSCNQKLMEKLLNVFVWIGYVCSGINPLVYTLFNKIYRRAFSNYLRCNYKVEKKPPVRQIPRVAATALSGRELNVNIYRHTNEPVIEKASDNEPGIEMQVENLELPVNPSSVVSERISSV

[6] = biological target: Sodium-dependent noradrenaline transporter (Homo sapiens, UniProt P23975); assay: as §1, with “SLC6A2” for “SIGMAR1”
Chain of Sodium-dependent noradrenaline transporter (P23975 whole entry): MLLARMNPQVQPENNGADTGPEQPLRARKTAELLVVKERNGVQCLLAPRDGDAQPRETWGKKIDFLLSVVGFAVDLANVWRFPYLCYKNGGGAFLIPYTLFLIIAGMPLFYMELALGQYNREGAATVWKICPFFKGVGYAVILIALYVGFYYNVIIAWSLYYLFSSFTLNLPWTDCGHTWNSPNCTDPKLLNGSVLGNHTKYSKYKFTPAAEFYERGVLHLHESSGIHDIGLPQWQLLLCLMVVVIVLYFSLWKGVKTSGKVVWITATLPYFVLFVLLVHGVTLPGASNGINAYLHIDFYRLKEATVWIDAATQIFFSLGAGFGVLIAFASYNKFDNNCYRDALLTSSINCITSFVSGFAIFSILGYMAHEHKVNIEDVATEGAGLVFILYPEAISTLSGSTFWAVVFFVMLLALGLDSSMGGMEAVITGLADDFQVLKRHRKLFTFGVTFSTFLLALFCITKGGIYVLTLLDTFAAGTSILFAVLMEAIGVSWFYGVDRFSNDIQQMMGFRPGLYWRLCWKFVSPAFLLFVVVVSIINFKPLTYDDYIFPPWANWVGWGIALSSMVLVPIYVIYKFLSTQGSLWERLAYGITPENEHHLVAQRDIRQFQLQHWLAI

[7] = biological target: T2, Alpha-2A adrenergic receptor (Homo sapiens, UniProt P08913); assay: as §1, with “ADRA2A” for “SIGMAR1”
T2 sequence (P08913 whole entry): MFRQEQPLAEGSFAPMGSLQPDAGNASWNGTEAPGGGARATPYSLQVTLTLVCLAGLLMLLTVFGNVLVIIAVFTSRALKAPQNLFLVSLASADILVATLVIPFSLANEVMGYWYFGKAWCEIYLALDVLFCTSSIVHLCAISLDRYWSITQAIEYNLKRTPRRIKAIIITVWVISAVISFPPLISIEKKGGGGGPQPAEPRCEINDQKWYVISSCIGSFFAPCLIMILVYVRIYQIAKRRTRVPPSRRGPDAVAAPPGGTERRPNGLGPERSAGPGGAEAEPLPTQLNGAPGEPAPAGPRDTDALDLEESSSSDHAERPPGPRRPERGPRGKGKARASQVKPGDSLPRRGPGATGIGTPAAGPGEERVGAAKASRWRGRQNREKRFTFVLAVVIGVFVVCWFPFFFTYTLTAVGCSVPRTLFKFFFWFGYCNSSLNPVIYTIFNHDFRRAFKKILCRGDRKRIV

Translocator protein = Translocator protein (Homo sapiens, UniProt P30536); assay: as §1, with “TSPO” for “SIGMAR1”
Chain of Translocator protein (P30536 whole entry): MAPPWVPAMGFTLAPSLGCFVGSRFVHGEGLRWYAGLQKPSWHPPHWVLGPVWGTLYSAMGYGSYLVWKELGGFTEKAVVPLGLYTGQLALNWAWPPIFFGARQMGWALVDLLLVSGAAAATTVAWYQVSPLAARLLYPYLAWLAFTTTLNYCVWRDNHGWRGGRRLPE

D(4) dopamine receptor = biological target: T3, D(4) dopamine receptor (Homo sapiens, UniProt P21917); assay: as §1, with “DRD4” for “SIGMAR1”
T3 sequence (P21917 whole entry): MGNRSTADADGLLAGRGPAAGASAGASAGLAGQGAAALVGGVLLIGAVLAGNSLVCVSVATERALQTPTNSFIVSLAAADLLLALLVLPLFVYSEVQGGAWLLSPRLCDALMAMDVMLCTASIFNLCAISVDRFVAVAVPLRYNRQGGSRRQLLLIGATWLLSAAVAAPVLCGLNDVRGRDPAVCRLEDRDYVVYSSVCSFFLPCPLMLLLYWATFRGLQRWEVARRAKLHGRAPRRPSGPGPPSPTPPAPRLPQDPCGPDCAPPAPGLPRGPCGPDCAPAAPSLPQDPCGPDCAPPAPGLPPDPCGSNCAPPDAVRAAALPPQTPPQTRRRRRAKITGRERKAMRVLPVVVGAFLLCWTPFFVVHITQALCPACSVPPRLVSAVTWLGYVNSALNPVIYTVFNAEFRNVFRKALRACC

[8] = biological target: T4, Alpha-2C adrenergic receptor (Homo sapiens, UniProt P18825); assay: as §1, with “ADRA2C” for “SIGMAR1”
T4 sequence (P18825 whole entry): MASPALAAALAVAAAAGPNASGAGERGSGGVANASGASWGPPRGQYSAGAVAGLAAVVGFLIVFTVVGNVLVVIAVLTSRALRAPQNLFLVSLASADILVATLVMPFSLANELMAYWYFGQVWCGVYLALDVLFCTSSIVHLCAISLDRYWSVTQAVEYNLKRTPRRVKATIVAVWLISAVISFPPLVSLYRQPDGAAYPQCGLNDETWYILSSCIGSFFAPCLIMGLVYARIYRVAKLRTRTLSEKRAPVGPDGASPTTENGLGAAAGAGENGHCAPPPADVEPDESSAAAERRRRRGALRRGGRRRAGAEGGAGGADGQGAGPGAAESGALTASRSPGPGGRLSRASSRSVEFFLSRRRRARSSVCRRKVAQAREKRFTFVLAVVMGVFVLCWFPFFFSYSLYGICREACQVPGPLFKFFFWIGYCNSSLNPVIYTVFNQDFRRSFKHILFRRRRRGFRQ

Histamine H1 receptor = Histamine H1 receptor (Homo sapiens, UniProt P35367); assay: as §1, with “HRH1” for “SIGMAR1”
Mu-type opioid receptor = Mu-type opioid receptor (Homo sapiens, UniProt P35372); assay: as §1, with “OPRM1” for “SIGMAR1”
Chain of Mu-type opioid receptor (P35372 whole entry): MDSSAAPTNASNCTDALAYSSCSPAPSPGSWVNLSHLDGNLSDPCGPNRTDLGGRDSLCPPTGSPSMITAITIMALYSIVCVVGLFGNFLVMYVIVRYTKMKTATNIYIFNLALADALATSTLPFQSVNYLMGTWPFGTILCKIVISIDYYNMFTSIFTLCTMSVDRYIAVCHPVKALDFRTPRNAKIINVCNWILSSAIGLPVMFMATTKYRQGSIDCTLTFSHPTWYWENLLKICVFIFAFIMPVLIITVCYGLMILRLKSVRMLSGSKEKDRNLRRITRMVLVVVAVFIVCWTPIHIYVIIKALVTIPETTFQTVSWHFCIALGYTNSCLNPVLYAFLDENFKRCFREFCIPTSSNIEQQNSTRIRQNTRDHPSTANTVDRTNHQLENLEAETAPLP

[9] = biological target: 5-hydroxytryptamine receptor 7 (Homo sapiens, UniProt P34969); assay: as §1, with “HTR7” for “SIGMAR1”
Chain of 5-hydroxytryptamine receptor 7 (P34969 whole entry): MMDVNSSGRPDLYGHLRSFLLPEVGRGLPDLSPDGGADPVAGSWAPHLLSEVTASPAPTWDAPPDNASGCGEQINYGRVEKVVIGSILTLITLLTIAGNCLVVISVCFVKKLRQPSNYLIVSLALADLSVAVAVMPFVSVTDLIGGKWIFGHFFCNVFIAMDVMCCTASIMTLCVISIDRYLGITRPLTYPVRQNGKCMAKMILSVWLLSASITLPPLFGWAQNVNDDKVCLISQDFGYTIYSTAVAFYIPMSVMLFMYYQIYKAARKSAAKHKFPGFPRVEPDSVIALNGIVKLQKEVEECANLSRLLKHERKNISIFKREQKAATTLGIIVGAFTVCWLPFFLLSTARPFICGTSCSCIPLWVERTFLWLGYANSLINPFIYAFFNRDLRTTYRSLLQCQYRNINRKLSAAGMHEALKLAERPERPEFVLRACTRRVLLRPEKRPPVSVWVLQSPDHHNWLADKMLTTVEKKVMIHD

[10] = biological target: 5-hydroxytryptamine receptor 5A (Homo sapiens, UniProt P47898); assay: as §1, with “HTR5A” for “SIGMAR1”
[11] = biological target: 5-hydroxytryptamine receptor 1B (Homo sapiens, UniProt P28222); assay: as §1, with “HTR1B” for “SIGMAR1”
[12] = biological target: Sodium-dependent dopamine transporter (Homo sapiens, UniProt Q01959); assay: as §1, with “SLC6A3” for “SIGMAR1”
Chain of Sodium-dependent dopamine transporter (Q01959 whole entry): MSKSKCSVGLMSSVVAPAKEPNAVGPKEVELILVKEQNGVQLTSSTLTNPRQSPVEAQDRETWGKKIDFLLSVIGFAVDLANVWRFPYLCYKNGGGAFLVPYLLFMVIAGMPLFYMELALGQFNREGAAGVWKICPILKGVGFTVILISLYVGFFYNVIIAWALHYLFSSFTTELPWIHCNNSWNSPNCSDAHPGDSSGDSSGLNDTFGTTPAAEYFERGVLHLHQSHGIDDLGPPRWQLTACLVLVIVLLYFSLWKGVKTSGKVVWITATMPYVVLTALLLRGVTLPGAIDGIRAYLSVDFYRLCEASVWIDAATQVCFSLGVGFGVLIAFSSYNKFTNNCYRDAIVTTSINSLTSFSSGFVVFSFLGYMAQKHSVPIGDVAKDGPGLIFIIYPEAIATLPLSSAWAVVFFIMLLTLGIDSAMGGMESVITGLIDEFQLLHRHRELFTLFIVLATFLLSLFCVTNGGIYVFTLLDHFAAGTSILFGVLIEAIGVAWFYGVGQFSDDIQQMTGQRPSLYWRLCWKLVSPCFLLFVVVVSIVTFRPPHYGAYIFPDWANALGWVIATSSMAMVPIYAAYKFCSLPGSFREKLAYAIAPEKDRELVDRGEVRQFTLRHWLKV

[13] = biological target: T5, Alpha-2B adrenergic receptor (Homo sapiens, UniProt P18089); assay: as §1, with “ADRA2B” for “SIGMAR1”
T5 sequence (P18089 whole entry): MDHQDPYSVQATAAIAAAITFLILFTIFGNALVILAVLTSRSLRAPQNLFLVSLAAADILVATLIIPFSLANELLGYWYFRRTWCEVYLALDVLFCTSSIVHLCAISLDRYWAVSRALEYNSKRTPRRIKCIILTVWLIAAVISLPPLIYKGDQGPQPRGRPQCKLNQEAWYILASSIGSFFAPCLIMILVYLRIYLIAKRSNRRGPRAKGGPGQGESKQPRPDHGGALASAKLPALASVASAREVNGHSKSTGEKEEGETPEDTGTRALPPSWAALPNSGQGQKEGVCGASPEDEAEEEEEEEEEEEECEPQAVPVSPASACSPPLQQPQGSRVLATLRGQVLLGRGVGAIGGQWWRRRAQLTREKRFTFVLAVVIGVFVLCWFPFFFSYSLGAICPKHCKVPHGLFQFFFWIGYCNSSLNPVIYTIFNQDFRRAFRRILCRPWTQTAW

[14] = biological target: Kappa-type opioid receptor (Homo sapiens, UniProt P41145); assay: as §1, with “OPRK1” for “SIGMAR1”
D(1B) dopamine receptor = D(1B) dopamine receptor (Homo sapiens, UniProt P21918); assay: as §1, with “DRD5” for “SIGMAR1”
Chain of D(1B) dopamine receptor (P21918 whole entry): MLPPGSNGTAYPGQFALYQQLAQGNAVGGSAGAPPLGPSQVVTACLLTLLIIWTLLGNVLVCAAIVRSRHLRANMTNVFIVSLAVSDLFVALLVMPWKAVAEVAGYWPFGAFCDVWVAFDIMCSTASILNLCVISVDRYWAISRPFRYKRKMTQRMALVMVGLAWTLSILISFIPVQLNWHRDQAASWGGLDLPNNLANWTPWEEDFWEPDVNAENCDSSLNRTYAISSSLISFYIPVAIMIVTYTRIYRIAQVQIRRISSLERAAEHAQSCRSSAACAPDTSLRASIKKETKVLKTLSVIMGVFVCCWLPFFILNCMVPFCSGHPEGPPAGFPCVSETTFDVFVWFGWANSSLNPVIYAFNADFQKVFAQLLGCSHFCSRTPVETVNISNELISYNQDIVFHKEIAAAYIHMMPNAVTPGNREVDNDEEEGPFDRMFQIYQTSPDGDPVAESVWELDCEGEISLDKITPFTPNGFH

[15] = biological target: 5-hydroxytryptamine receptor 2B (Homo sapiens, UniProt P41595); assay: as §1, with “HTR2B” for “SIGMAR1”
D(3) dopamine receptor = D(3) dopamine receptor (Homo sapiens, UniProt P35462); assay: as §1, with “DRD3” for “SIGMAR1”
[16] = biological target: T6, Muscarinic acetylcholine receptor M5 (Homo sapiens, UniProt P08912); assay: as §1, with “CHRM5” for “SIGMAR1”
T6 sequence (P08912 whole entry): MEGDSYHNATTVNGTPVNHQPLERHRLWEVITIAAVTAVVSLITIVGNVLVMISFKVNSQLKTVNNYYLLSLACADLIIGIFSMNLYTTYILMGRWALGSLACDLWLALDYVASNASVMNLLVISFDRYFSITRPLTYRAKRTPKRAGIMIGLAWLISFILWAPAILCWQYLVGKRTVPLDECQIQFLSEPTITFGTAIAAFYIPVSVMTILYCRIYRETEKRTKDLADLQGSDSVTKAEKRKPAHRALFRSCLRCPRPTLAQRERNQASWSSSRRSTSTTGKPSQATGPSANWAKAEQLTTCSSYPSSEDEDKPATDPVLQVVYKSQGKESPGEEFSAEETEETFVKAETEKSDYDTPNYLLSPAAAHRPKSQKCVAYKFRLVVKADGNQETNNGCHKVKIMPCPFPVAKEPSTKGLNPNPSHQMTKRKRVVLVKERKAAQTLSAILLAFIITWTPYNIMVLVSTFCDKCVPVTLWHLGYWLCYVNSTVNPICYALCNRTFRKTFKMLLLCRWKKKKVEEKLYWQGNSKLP

SMILES	Ki [1] [nM]	Ki [2] [nM]	Ki (D(2) dopamine receptor) [nM]	Ki [4] [nM]	Ki [6] [nM]	Ki (Mu-type opioid receptor) [nM]	Ki [12] [nM]	other results
Cc1cc(NC(=O)NCCN2CCC(O)(Cc3ccccc3)CC2)c2ccccc2n1 [PALOSURAN]	1700	956	596	995	1090			Ki [3]: 1590 nM; Ki [5]: 139 nM; Ki [7]: 1020 nM
O=C(c1cc2c(cc1F)OC(c1ccc(F)cc1)(c1ccc(Cl)cc1Cl)O2)N1CCOCC1 (stereo unspecified)		509			2540	3140	3460	Ki [14]: 503 nM; Ki (D(1B) dopamine receptor): 708 nM; Ki [3]: 2660 nM; Ki [15]: 607 nM; Ki [5]: 319 nM
OC1(c2ccc(Cl)cc2)CCN(Cc2c[nH]c3ccccc23)CC1		269		29.5	1470	51.5	1400	Ki (D(4) dopamine receptor): 569 nM; Ki (D(3) dopamine receptor): 205 nM; Ki [16]: 579 nM; Ki [13]: 602 nM; Ki [7]: 3850 nM

Further lines, with some results ahead:

Ki [1] [nM]	Ki [2] [nM]	Ki (D(2) dopamine receptor) [nM]	Ki [4] [nM]	Ki [6] [nM]	Ki (Mu-type opioid receptor) [nM]	Ki [12] [nM]	SMILES	other results
		3850					O=c1ccn([C@@H]2O[C@H](COP(=O)(O)OP(=O)(O)OP(=O)(O)O)[C@@H](O)[C@H]2O)c(=O)[nH]1	Ki (Translocator protein): 4780 nM; Ki (D(4) dopamine receptor): 8730 nM
		8810					CC(C)(C(=O)O)c1ccc(C(O)CCCN2CCC(C(O)(c3ccccc3)c3ccccc3)CC2)cc1 (stereo unspecified) [FEXOFENADINE HYDROCHLORIDE]	
256	113		304	1670	249	734	COc1ccccc1N1CCN(CCCCNC(=O)c2ccc3ccccc3c2)CC1	Ki [8]: 83.6 nM; Ki (Histamine H1 receptor): 125 nM; Ki [9]: 29.8 nM; Ki [10]: 754 nM; Ki (Translocator protein): 1180 nM; Ki [11]: 166 nM; Ki [13]: 132 nM
2610							OC[C@H]1O[C@@H](n2cnc3c(NC4CCCC4)ncnc32)[C@H](O)[C@@H]1O [N6-CYCLOPENTYLADENOSINE]	Ki (D(1B) dopamine receptor): > 10000 nM
